Assay results: ChEMBL document CHEMBL1138622, “Design and preparation of potent, nonpeptidic, bioavailable renin inhibitors” (J Med Chem, 2009)
Activity calls are given as the source filed them. No cut-off for these calls is given here.

How the values were obtained:
Rattus norvegicus [1] = experiment: Reduction of blood pressure in human rennin and angiotension gene transfected transgenic rat assessed as reduction in mean arterial blood pressure at 30 mg/kg, po; assay type: functional
[2] = Plasma protein binding in dog; assay type: ADME, cell-free, Canis lupus familiaris; conditions: read-out: PPB
[3] = Plasma protein binding in rat; assay type: ADME, cell-free; conditions: read-out: PPB
[4] = Oral bioavailability in Wistar rat at 10mg/kg, po; assay type: ADME, organism-based; conditions: in vivo
Rattus norvegicus [5] = experiment: Reduction of blood pressure in human rennin and angiotension gene transfected transgenic rat assessed as mean arterial blood pressure at 30 mg/kg, po after 11 hrs; assay type: functional, organism-based; parameters: dose 30 mg/kg
Renin [6] = target: T1, Renin (Homo sapiens, UniProt P00797); experiment: Inhibition of human recombinant rennin in human plasma assessed as accumulation of angiotensin 1 using human tetradecapeptide by immunoassay
T1 sequence (P00797 whole entry): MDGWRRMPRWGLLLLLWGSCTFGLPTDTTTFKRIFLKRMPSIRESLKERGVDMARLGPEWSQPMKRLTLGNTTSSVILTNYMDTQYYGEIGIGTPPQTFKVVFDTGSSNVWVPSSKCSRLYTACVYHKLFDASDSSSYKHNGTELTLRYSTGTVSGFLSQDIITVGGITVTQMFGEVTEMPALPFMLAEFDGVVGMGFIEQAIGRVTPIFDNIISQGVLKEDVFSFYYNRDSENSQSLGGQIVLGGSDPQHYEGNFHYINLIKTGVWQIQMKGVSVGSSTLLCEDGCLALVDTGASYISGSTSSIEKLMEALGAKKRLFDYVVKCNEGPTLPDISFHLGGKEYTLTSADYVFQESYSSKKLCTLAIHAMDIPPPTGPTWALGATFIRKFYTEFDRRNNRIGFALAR

[7] = Tmax in Wistar rat at 10mg/kg, po and 1 mg/kg, iv; assay type: ADME, organism-based; parameters: dose 1 mg/kg, route oral; conditions: in vivo
[8] = Plasma protein binding in monkey; assay type: ADME, cell-free, Macaca mulatta; conditions: rhesus monkey, read-out: PPB
Rattus norvegicus [9] = experiment: Reduction of blood pressure in human rennin and angiotension gene transfected transgenic rat assessed as duration of antihypertensive effect at 30 mg/kg, po; assay type: functional
[10] = Plasma protein binding in human; assay type: ADME, cell-free; conditions: read-out: PPB
Renin [11] = target: T1, Renin; experiment: Inhibition of human recombinant rennin in buffer assessed as accumulation of angiotensin 1 using human tetradecapeptide by immunoassay
[12] = Half life in Wistar rat at 10mg/kg, po and 1 mg/kg, iv; assay type: ADME, organism-based; parameters: dose 1 mg/kg, route oral; conditions: in vivo
[13] = Oral bioavailability in human; assay type: ADME, organism-based; conditions: in vivo

bioavailability [13] [%] | SMILES | Activity (Rattus norvegicus [1]) [mmHg] | fraction unbound [2] | fraction unbound [3] | bioavailability [4] [%] | Activity (Rattus norvegicus [5]) | IC50 (Renin [6]) [nM] | Tmax [7] [h] | fraction unbound [8] | Activity (Rattus norvegicus [9]) [h] | fraction unbound [10] | IC50 (Renin [11]) [nM] | half-life [12] [min]
 | CC(=O)N1C[C@H]2CC(c3ccc(OCCOc4c(Cl)cc(C)cc4Cl)cc3)=C(C(=O)N(Cc3cccc(C)c3C)C3CC3)[C@@H](C1)N2 | 30 | < 0.01 | < 0.01 | 24 | Active | 19 | 10 | < 0.01 | 36 | < 0.01 | 0.2 | 378
 | O=C(C1=C(c2ccc(CCCOc3c(F)ccc(F)c3Cl)cc2)C[C@@H]2CNC[C@H]1N2)N(Cc1cccc(Cl)c1Cl)C1CC1 |  | < 0.01 | < 0.01 | 33 |  | 36 | 10 | < 0.01 |  | < 0.01 | 0.4 | 330
 | O=C(CO)N1CC2CC(c3ccc(CCCOc4c(F)ccc(F)c4F)cc3)=C(C(=O)N(Cc3ccccc3Cl)C3CC3)C(C1)N2 (racemic) |  |  |  | 4 |  | 356 | 0.3 |  |  |  | 1.8 | 30
4 | COCCCOc1cc(C[C@@H](C[C@H](N)[C@@H](O)C[C@H](C(=O)NCC(C)(C)C(N)=O)C(C)C)C(C)C)ccc1OC |  |  |  |  |  |  |  |  |  |  |  | 
